Publication PMC10709440, “High-throughput ligand profile characterization in novel cell lines expressing seven heterologous insect olfactory receptors for the detection of volatile plant biomarkers” (Scientific Reports, 2023)
“And” between values parts separate entries of the source, which are not always exact repeats. Identical values can stand only once. Like-named read-outs stand apart in the source and are kept apart here.

How the values were obtained:
[1] = molecular target: T1, Drosophila OR49b (Drosophila melanogaster, UniProt Q9V6H2); assay: cell-based; conditions: for activation at 1 µM / activation at 10 µM / activation at 100 µM: HEK293; for Average response: mean of biological replicates; for DF norm AVERAGE OR49b: threshold 0.05, below shown as 0
T1 construct: expressed in transfected cells
T1 sequence (Q9V6H2 1-375): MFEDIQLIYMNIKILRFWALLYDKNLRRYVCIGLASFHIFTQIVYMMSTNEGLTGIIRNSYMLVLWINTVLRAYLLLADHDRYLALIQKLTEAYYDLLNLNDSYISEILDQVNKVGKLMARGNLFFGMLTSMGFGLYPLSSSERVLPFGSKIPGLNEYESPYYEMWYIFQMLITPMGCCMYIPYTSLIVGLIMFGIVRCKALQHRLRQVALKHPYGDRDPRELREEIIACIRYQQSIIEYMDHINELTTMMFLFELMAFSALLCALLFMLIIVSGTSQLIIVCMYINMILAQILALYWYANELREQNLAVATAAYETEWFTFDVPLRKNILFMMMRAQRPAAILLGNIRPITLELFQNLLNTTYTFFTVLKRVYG
T1 sequence (Q9VNB5 1-486 partner): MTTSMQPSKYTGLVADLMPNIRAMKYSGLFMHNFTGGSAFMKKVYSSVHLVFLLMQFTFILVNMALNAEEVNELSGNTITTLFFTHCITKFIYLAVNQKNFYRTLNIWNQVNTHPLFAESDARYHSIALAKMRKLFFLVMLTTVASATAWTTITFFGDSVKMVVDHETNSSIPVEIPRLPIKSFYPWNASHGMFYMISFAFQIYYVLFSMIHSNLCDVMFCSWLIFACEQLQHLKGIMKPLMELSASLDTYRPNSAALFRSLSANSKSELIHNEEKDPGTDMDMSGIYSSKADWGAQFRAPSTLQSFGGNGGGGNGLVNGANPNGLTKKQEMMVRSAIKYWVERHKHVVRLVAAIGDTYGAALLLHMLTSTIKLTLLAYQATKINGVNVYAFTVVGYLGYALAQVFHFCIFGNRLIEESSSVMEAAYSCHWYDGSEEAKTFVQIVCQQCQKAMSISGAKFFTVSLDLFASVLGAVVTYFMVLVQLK
Procedure, shortened: (§1)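 Responses are VUAA1-normalized ΔF: each VOC-evoked calcium signal, (FMAX−F0)/F0 over 30 s after injection, divided by the same line's mean 50 µM VUAA1 response. Cells were doxycycline-induced HEK293 with GCaMP6 and the cognate Drosophila OR, in HEPES buffer pH 7.3; ligands tested 0.01–100 μM.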

[2] = molecular target: T2, Drosophila OR13a (Drosophila melanogaster, UniProt Q9VXL0); assay: Calcium ion fluorescence (GCaMP6) assay, OR13a stable HEK293 cell line; assay type: cell-based; conditions: for OR13a response (VUAA1-normalized) at 1 μM / OR13a response (VUAA1-normalized) at 10 μM / OR13a response (VUAA1-normalized) at 100 μM: OR13a cell line; for OR13a response (VUAA1-normalized) at 1 μM: VOC concentration 1 μM; for OR13a response (VUAA1-normalized) at 10 μM: VOC concentration 10 μM; for OR13a response (VUAA1-normalized) at 100 μM: VOC concentration 100 μM
T2 construct: expressed in transfected cells
T2 sequence (Q9VXL0 1-418): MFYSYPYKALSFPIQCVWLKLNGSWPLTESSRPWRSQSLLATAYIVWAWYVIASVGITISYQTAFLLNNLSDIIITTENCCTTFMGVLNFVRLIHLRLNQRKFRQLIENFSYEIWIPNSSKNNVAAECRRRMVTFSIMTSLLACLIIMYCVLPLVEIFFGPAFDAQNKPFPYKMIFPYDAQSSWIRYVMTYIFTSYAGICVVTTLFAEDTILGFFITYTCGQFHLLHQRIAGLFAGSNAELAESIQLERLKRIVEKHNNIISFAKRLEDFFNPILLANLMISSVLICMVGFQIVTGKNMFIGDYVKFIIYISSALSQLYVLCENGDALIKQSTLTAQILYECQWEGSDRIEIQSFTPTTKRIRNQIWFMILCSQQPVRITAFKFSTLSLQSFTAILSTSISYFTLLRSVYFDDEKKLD
T2 sequence (Q9VNB5 1-486 partner): T1 sequence (Q9VNB5 1-486 partner)
Procedure, shortened: as §1

[3] = VOC concentration 1 μM, read-out: OR49b response (VUAA1-normalized response)
[4] = VOC concentration 10 μM, read-out: OR49b response (VUAA1-normalized response)
[5] = VOC concentration 100 μM, read-out: OR49b response (VUAA1-normalized response)
[6] = OR49b cell line, odorant cc. 1 µM
[7] = OR49b cell line, odorant cc. 10 µM
[8] = OR49b cell line, odorant cc. 100 µM
[9] = ligand concentration 1 (unit not given)
[10] = ligand concentration 10 (unit not given)
[11] = ligand concentration 100 (unit not given)
[12] = HEK293, read-out: OR13a Average response (VUAA1-normalized), 1 μM VOC, 50 μM VUAA1 = 1, responses not exceeding 0.05 considered 0
[13] = HEK293, read-out: OR13a Average response (VUAA1-normalized), 10 μM VOC, 50 μM VUAA1 = 1, responses not exceeding 0.05 considered 0
[14] = HEK293, read-out: OR13a Average response (VUAA1-normalized), 100 μM VOC, 50 μM VUAA1 = 1, responses not exceeding 0.05 considered 0
[15] = HEK293, read-out: OR13a response (VUAA1-normalized response), VOC concentration 1 μM
[16] = HEK293, read-out: OR13a response (VUAA1-normalized response), VOC concentration 10 μM
[17] = HEK293, read-out: OR13a response (VUAA1-normalized response), VOC concentration 100 μM
[18] = ligand concentration 1 (unit not given), threshold 0.05, below shown as 0
[19] = ligand concentration 10 (unit not given), threshold 0.05, below shown as 0
[20] = ligand concentration 100 (unit not given), threshold 0.05, below shown as 0

| Structure (SMILES) | activation at 1 µM [1, 3] [%] | activation at 10 µM [1, 4] [%] | activation at 100 µM [1, 5] [%] | Average response [1, 6] | Average response [1, 7] | Average response [1, 8] | DF norm AVERAGE OR49b [1, 9] | DF norm AVERAGE OR49b [1, 10] | DF norm AVERAGE OR49b [1, 11] | activation at 1 µM [2, 12] [%] | activation at 10 µM [2, 13] [%] | activation at 100 µM [2, 14] [%] | activation at 1 µM [2, 15] [%] | activation at 10 µM [2, 16] [%] | activation at 100 µM [2, 17] [%] | DF norm AVERAGE OR13a [2, 18] | DF norm AVERAGE OR13a [2, 19] | DF norm AVERAGE OR13a [2, 20] | OR13a response (VUAA1-normalized) at 1 μM [2] | OR13a response (VUAA1-normalized) at 10 μM [2] | also measured |
| --- | --- | --- | --- | --- | --- | --- | --- | --- | --- | --- | --- | --- | --- | --- | --- | --- | --- | --- | --- | --- | --- |
| CC1=CC[C@@H](C(C)(C)O)CC1 [alpha-terpineol] | 0 | 0 | 0 | 0.00 | 0.00 | 0.0245 | 0 | 0 | 0 | 3.36 | 0 | 0 | 0 | 0 | 0 | 0 | 0 | 0 | – | – | – |
| CCCCCC(O)CC (centres unmarked) [3-octanol] | 0 | 7 | 5.5 | 0.00 | 0.07 | 0.055 | – | – | – | 0 | 0 | 12 | 0 | 0 | 12 | – | – | – | – | – | DF norm AVERAGE OR13a ([2]; concentration 1, normalized fluorescence change, values below 0.05 threshold given as 0): 0; DF norm AVERAGE OR13a ([2]; concentration 10, normalized fluorescence change, values below 0.05 threshold given as 0): 0; DF norm AVERAGE OR13a ([2]; concentration 100, normalized fluorescence change, values below 0.05 threshold given as 0): 0.1167 |
| CCCCCCCCC=O [nonanal] | – | – | – | 0.00 | 0.00 | 0.00 | 0 | 0 | 0 | 0 | 0 | 0 | – | – | – | 0 | 0 | 0 | 0.00 | 0.00 | OR49b response (VUAA1-normalized) at 1 μM ([1]; OR49b cell line, VOC concentration 1 μM): 0.00; OR49b response (VUAA1-normalized) at 10 μM ([1]; OR49b cell line, VOC concentration 10 μM): 0.00; OR49b response (VUAA1-normalized) at 100 μM ([1]; OR49b cell line, VOC concentration 100 μM): 0.00; OR13a response (VUAA1-normalized) at 100 μM [2]: 0.00 |
| C=Cc1ccccc1 [styrene] | – | – | – | – | – | – | – | – | – | 3 | 0 | – | – | – | – | – | – | – | 0.00 | 0.00 | EC50 ([1]; AVERAGE EC50, OR49b, printed with 95% confidence interval, matches the average LOG EC50): 21.1 µM; EC50 ([1]; EC50 (fitted parameter), OR49b, fit of each biological replicate): 16.6 µM and 17.3 µM; EC50 ([1]; EC50, AVERAGE, OR49b, arithmetic average of 5 replicate EC50): 24.9 µM; EC50 ([1]; LOG EC50 (fitted parameter), OR49b, fit of each biological replicate, log of EC50, unit inferred): 46.9 µM; EC50 ([1]; OR49b cell line, fitted Hill equation, Hill coefficient constrained to 1, maximal response max 1, read-out: EC50): 21.1 µM; EC50 ([1]; OR49b, average of 5 biological replicates, read-out: LOG EC50, AVERAGE (converted)): 21.1 µM; EC50 ([1]; OR49b, fit of each biological replicate, log of EC50, unit inferred, read-out: LOG EC50 (fitted parameter) (converted)): 34.6 µM and 16.6 µM and 17.3 µM and 8.95 µM; EC50 ([1]; OR49b, fit of each biological replicate, read-out: EC50 (fitted parameter)): 34.6 µM and 46.9 µM and 8.95 µM; EC50 ([1]; OR49b, fit of the averaged curve, read-out: EC50, FITTED AVERAGE CURVE): 24.4 µM; OR13a response (VUAA1-normalized) at 100 μM [2]: 0.00; DF norm AVERAGE OR13a ([2]; ligand concentration 1 (unit not given), 0.05 threshold, values below shown as 0): 0; DF norm AVERAGE OR13a ([2]; ligand concentration 10 (unit not given), 0.05 threshold, values below shown as 0): 0; DF norm AVERAGE OR13a ([2]; ligand concentration 100 (unit not given), 0.05 threshold, values below shown as 0): 0 |
| CC/C=C/CCO [e3-hexenol] | – | – | – | 0.00 | 0.00 | 0.08 | 0 | 0 | 0.07888 | – | – | – | – | – | – | 0 | 0 | 0.07115 | – | – | OR13a Average response (VUAA1-normalized) ([2]; 1 μM VOC, 50 μM VUAA1 = 1, responses not exceeding 0.05 considered 0): 0.00; OR13a Average response (VUAA1-normalized) ([2]; 10 μM VOC, 50 μM VUAA1 = 1, responses not exceeding 0.05 considered 0): 0.00; OR13a Average response (VUAA1-normalized) ([2]; 100 μM VOC, 50 μM VUAA1 = 1, responses not exceeding 0.05 considered 0): 0.07 |
| CC(=O)OCCC(C)C [isopentyl acetate] | 0 | 0 | 15 | 0.00 | 0.00 | 0.15 | 0 | 0 | 0.1516 | 3 | 4 | 0 | 0 | 0 | 0 | 0 | 0 | 0 | – | – | activation at 1 µM ([1]; 1 μM VOC, 50 μM VUAA1 = 1, read-out: OR49b Average response (VUAA1-normalized)): 0%; activation at 10 µM ([1]; 10 μM VOC, 50 μM VUAA1 = 1, read-out: OR49b Average response (VUAA1-normalized)): 0%; activation at 100 µM ([1]; 100 μM VOC, 50 μM VUAA1 = 1, read-out: OR49b Average response (VUAA1-normalized)): 15% |
